Experiment [1] deals with Uracil-DNA glycosylase (Homo sapiens) (UniProt P13051). The settings on record: Compound Concentration 10.0 uM, Hit No.
Experiment [2] has as its target T1, Adenine DNA glycosylase (Homo sapiens) (UniProt Q9UIF7).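 Further: human MUTYH activity read as 594 nm fluorescence from cleavage and release of a quenched DNA duplex, coupled with APE1 for strand incision, lower signal meaning inhibition.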
T1 sequence (whole entry): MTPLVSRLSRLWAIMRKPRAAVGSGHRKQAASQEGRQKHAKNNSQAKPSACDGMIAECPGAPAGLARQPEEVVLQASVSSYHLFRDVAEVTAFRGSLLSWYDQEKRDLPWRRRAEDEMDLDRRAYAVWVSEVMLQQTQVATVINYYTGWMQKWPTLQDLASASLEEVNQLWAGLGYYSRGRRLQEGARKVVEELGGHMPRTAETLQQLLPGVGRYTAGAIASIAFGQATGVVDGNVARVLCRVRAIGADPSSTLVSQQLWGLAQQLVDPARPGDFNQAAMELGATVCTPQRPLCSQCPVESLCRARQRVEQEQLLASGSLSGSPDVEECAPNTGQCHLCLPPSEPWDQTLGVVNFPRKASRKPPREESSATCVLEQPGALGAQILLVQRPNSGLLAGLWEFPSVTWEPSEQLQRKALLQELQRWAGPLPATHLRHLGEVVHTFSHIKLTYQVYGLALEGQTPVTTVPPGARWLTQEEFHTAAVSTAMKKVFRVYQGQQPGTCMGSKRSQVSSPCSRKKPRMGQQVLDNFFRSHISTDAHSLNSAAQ
Particulars: Compound Concentration 10.0 uM, Hit No.

Experiment [3] addresses T2, Endonuclease 8-like 2 (Homo sapiens) (UniProt Q969S2).
T2 sequence (whole entry): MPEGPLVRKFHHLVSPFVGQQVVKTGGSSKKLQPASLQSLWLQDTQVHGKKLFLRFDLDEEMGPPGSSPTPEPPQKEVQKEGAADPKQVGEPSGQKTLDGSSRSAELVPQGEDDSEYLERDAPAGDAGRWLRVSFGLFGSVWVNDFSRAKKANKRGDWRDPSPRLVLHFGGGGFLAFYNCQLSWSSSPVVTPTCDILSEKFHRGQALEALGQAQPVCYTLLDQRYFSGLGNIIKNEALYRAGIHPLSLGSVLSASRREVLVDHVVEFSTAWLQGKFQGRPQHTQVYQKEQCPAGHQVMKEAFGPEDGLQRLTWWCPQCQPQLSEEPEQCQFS
Particulars: Compound Concentration 10.0 uM, Hit No.

Experiment [4] addresses Endonuclease 8-like 1 (Homo sapiens) (UniProt Q96FI4). The settings on record: Compound Concentration 10.0 uM, Hit No.
The target in experiment [5] is DNA-3-methyladenine glycosylase (Homo sapiens) (UniProt P29372). Particulars: Compound Concentration 10.0 uM.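 Further: enzyme assay where MPG cuts a quenched duplex DNA oligonucleotide probe, paired with APE1 for strand incision and turnover, read as fluorescence at 594 nm.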
Chain of DNA-3-methyladenine glycosylase (Homo sapiens) (P29372 whole entry): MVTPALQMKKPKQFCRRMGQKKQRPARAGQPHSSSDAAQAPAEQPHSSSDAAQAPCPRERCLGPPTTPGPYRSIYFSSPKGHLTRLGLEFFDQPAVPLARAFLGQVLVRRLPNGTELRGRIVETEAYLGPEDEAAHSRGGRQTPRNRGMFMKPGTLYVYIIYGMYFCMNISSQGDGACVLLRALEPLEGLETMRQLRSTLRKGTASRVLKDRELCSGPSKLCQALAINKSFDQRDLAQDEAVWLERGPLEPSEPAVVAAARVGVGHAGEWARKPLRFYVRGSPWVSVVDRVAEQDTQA
For experiment [6], the target named is G/T mismatch-specific thymine DNA glycosylase (Homo sapiens) (UniProt Q13569). Particulars: Compound Concentration 10.0 uM.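 Further: human TDG cleavage of quenched duplex DNA oligonucleotides coupled to APE1, strand release read as fluorescence at 594 nm, inhibition of TDG activity.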
Chain of G/T mismatch-specific thymine DNA glycosylase (Homo sapiens) (Q13569 whole entry): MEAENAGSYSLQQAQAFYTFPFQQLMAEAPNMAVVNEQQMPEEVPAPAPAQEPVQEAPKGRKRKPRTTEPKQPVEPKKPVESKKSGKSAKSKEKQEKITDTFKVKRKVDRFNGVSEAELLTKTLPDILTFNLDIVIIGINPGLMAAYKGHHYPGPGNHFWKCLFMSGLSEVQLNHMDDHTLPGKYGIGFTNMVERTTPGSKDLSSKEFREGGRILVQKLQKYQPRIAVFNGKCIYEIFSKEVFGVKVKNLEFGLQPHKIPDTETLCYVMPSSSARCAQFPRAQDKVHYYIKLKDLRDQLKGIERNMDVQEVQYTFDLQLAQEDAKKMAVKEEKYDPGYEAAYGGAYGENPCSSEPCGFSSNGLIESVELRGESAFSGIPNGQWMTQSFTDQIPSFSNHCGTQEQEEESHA
Experiment [7] concerns the target N-glycosylase/DNA lyase (Homo sapiens) (UniProt O15527). The settings on record: Compound Concentration 10.0 uM, Hit No.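 Further: OGG1 cleavage of a quenched duplex DNA oligonucleotide, coupled to APE1 for strand incision, read as fluorescence at 594 nm.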
The target of experiment [8] is T3, Single-strand selective monofunctional uracil DNA glycosylase (Homo sapiens) (UniProt Q53HV7).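 Further: enzymatic SMUG1 assay coupled with APE1, reading fluorescence at 594 nm released when a quenched double-stranded DNA oligonucleotide substrate is cleaved and separated.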
T3 sequence (whole entry): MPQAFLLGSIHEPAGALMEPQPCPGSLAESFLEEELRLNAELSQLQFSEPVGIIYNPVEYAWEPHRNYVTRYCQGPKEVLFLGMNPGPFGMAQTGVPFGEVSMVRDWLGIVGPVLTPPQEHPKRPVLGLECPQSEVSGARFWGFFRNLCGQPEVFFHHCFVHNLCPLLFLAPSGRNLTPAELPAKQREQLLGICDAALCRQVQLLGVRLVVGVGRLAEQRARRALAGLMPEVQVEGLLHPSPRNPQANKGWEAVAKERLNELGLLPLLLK
The settings on record: Compound Concentration 10.0 uM, Hit No.

The target in experiment [9] is Methyl-CpG-binding domain protein 4 (Homo sapiens) (UniProt O95243). Particulars: Compound Concentration 10.0 uM.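 Further: MBD4 activity read as fluorescence at 594 nm from cleavage and release of a quenched duplex DNA oligonucleotide, with APE1 coupled to incise the strand and raise turnover.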
Chain of Methyl-CpG-binding domain protein 4 (Homo sapiens) (O95243 whole entry, the tested form may be a part): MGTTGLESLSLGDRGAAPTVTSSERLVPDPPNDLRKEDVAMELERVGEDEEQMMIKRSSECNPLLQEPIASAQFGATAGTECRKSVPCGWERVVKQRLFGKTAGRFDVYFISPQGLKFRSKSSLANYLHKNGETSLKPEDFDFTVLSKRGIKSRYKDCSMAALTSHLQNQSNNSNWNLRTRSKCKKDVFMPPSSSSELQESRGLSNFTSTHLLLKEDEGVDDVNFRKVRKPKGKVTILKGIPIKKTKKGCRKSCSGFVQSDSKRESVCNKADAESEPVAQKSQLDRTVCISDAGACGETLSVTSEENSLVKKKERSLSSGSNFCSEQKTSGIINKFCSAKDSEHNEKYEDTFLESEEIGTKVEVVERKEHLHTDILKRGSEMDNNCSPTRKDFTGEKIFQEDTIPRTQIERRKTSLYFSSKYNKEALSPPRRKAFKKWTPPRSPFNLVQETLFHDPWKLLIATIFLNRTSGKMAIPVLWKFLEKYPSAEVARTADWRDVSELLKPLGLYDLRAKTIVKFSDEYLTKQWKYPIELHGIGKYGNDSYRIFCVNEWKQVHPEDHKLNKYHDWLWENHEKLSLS

The structures appear in SMILES notation.

Chain of Uracil-DNA glycosylase (Homo sapiens) (P13051 whole entry): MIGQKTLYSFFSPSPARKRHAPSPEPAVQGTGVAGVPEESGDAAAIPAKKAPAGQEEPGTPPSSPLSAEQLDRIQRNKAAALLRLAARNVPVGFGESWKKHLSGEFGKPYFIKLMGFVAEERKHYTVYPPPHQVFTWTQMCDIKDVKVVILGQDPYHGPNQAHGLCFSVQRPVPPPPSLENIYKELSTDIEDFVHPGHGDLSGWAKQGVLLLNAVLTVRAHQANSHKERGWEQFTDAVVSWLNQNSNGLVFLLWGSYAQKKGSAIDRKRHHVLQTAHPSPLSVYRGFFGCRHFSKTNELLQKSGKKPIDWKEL
Chain of N-glycosylase/DNA lyase (Homo sapiens) (O15527 whole entry): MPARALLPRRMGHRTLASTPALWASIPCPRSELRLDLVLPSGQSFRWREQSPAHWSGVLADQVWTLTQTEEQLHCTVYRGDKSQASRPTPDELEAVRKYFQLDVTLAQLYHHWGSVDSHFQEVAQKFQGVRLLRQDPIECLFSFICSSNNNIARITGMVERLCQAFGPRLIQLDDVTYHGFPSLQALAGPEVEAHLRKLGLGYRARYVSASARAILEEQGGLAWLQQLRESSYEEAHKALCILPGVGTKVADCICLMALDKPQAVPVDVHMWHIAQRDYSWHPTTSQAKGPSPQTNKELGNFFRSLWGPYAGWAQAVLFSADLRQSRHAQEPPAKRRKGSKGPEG
Chain of Endonuclease 8-like 1 (Homo sapiens) (Q96FI4 whole entry): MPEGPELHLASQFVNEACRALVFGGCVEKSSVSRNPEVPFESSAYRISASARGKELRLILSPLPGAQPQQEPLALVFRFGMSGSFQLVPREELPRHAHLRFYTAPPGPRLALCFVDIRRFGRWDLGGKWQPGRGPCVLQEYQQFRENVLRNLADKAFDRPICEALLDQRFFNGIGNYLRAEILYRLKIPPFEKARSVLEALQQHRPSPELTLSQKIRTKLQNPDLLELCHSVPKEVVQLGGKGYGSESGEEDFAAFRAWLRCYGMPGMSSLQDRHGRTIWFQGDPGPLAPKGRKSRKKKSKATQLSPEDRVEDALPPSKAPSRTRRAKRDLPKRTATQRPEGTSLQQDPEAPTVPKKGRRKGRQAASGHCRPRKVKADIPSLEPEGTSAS

The term inhibition denotes the drop in the measured response relative to a control, in per cent. With `Cc1noc(-c2ccc(-c3ccc(CC(=O)O)cc3)cc2)c1NC(=O)O[C@H](C)c1ccccc1Cl`, the inhibition was -9.06% in experiment [1]; 53.1% in experiment [2]; -4.48% in experiment [3]; -3.47% in experiment [4]; 10.4% in [5] (Hit No); 43.6% in [6] (Hit No). The inhibition in experiment [7] was 10.8%; in experiment [8], -3.86%; in experiment [9] (Hit No), 45.9%.
With `CC(C)NCC(O)COc1ccc(CCOCC2CC2)cc1` (stereo not drawn), the inhibition in experiment [1] is -7.33%; in [2], -5.48%; in [3], -0.983%; in experiment [4], -5.99%; in experiment [5] (Hit No), -1.52%; in [6] (Hit No), 21.4%. In addition, the inhibition in [7] was -0.494%; in experiment [8], 5.49%; in [9] (Hit No), 4.74%.
For the compound `COc1ccc(S(=O)(=O)N2c3ccc(Cl)cc3[C@](O)(c3ccccc3Cl)[C@@H]2C(=O)N2CCC[C@H]2C(N)=O)cc1OC`, the inhibition in [1] was -8.37%; in experiment [2] it was 28.9%; in [3], -0.733%; in experiment [4] it was -2.72%; in [5] (Hit No), 8.66%; in experiment [6] (Hit No), 10.6%. The inhibition in experiment [7] was -5.95%; in [8], -8.03%; in experiment [9] (Hit No), -7.23%.
In the case of `CCc1ccc(OCc2ccccc2C(=O)Nc2ccc3nc(C)cc(N)c3c2)cc1`, the inhibition in experiment [1] is -2.29%; in [2], 77.8%; in [3], 16.5%; in experiment [4] it was -4.06%; in experiment [5] (Hit Yes), 71.5%; in experiment [6] (Hit Yes), 82.5%. For the same compound, the inhibition in [7] is 12.5%; in [8], -3.13%; in [9] (Hit No), 43.2%.
As to `COc1cc2nc(N3CCN(C(=O)c4ccco4)CC3)nc(N)c2cc1OC`, the inhibition in [1] was -8.11%; in experiment [2] it was 14%; in experiment [3] it was 10%; in experiment [4], 5.73%; in experiment [5] (Hit No) it was 11.1%; in experiment [6] (Hit No), 4.76%. The inhibition is 0.771% in [7], -2.6% in experiment [8] and 7.24% in experiment [9] (Hit No).
Consider `CC(C1CC2CCC1C2)n1c(S)nnc1-c1ccco1` (stereo not drawn), for which the inhibition was -6.26% in experiment [1]; 19.9% in experiment [2]; 9.84% in experiment [3]; 1.64% in experiment [4]; 19.5% in [5] (Hit No); 22.6% in [6] (Hit No). Also, the inhibition was -7.6% in experiment [7], 13.7% in experiment [8] and 23.6% in experiment [9] (Hit No).
`CCOC(=O)c1cc(C#N)c(N2CCC(C(=O)NS(=O)(=O)Cc3ccccc3)CC2)nc1C`: the inhibition in experiment [1] is -6.55%; in experiment [2], 13.3%; in experiment [3] it was -3.73%; in experiment [4], -0.649%; in experiment [5] (Hit No), 0.797%; in [6] (Hit No) it was 22.6%. Moreover, the values for the inhibition in experiment [7], in experiment [8] and in [9] (Hit No) were 4.63%, 7.04% and 12%, respectively.
On to `O=C(O)CC/C=C\C[C@@H]1CO[C@H](c2ccccc2Cl)O[C@@H]1c1ccccc1O`, for which the inhibition in experiment [1] was -7.83%; in experiment [2], 8.47%; in [3] it was 0.265%; in [4] it was -2.87%; in experiment [5] (Hit No), 4.5%; in experiment [6] (Hit No), 13.8%. Moreover, the inhibition is -7.71% in experiment [7], 0.5% in [8] and 0.092% in experiment [9] (Hit No).
Take `COc1ccccc1/C=N/NC(=O)COc1ccc(Cl)cc1C`: the inhibition in experiment [1] is -5.19%; in experiment [2], 10.8%; in experiment [3] it was -3.15%; in experiment [4] it was 8.6%; in [5] (Hit No), 9.76%; in [6] (Hit No), 18.2%. The inhibition in [7] came to 2.66%; in experiment [8], 14%; in experiment [9] (Hit No) it was 18.4%.
With `O=C(Nc1ccc(Cl)nc1)c1ccc(Cl)cc1`, the inhibition in [1] amounted to 1.37%; in experiment [2], 26.6%; in experiment [3] it was 5.25%; in [4], 6.68%; in experiment [5] (Hit No) it was 18.7%; in experiment [6] (Hit No), 21.2%. Besides, the inhibition amounted to 6.76% in experiment [7], 3.71% in experiment [8] and 19.3% in experiment [9] (Hit No).
With `CC(Cc1ccc(O)c(O)c1)C(C)Cc1ccc(O)c(O)c1` (stereo not drawn), the inhibition in experiment [1] turned out to be 1.91%; in experiment [2], 35.6%; in [3] it was 0.265%; in [4], 12.4%; in experiment [5] (Hit No), 19.4%; in experiment [6] (Hit No) it was 40%. Further, the inhibition was 28.8% in experiment [7], -6.33% in experiment [8] and 58.5% in experiment [9] (Hit No).
Consider `CCCCCNC(=N)N/N=C/c1c[nH]c2ccc(OC)cc12`, for which the inhibition is -3.68% in experiment [1]; 114% in [2]; 20.7% in experiment [3]; -9.54% in experiment [4]; 108% in experiment [5] (Hit Yes); 103% in experiment [6] (Hit Yes). The inhibition in experiment [7] is 2.43%; in experiment [8] it was -3.67%; in experiment [9] (Hit Yes) it was 114%.
Regarding `COc1ccc(CNC(=O)c2cc(-c3cncc(Cl)c3)cnc2-c2ccccn2)nc1OC`, the inhibition in experiment [1] is -5.71%; in [2] it was -1%; in [3], 6.5%; in [4] it was -8.51%; in [5] (Hit No) it was -0.668%; in experiment [6] (Hit No) it was 11.4%. Moreover, the inhibition in experiment [7] was -1.43%; in experiment [8], -1.29%; in [9] (Hit No), 0.324%.
Regarding `Cn1c(SCc2ccc(C(C)(C)C)cc2)nc(N)cc1=O`, the inhibition was -6.37% in experiment [1]; 6.33% in experiment [2]; 5.25% in experiment [3]; -0.435% in experiment [4]; 9.09% in experiment [5] (Hit No); 8.05% in experiment [6] (Hit No). The inhibition in experiment [7] was -4.44%; in [8], -4.37%; in [9] (Hit No), 12.4%.
As for `Cc1ccccc1C(=O)Nc1ccc(C(=O)N2CCCC(O)c3cc(Cl)ccc32)c(C)c1` (stereo not drawn), the inhibition in experiment [1] was -8.3%; in [2], 12.2%; in experiment [3] it was 1.01%; in experiment [4], 6.76%; in experiment [5] (Hit No), 0.836%; in experiment [6] (Hit No), 18.4%. The inhibition in experiment [7] is -1.2%; in [8], -8.66%; in experiment [9] (Hit No), -1.3%.
Consider `CCOc1nc2cccc(C(=O)O)c2n1Cc1ccc(-c2ccccc2-c2nnn[nH]2)cc1`, for which the inhibition in experiment [1] was -8.46%; in [2] it was 2.84%; in experiment [3], 7%; in experiment [4] it was 2.02%; in [5] (Hit No), -3.68%; in experiment [6] (Hit No), 6.47%. Further, the results for the inhibition in experiment [7], in [8] and in experiment [9] (Hit No) were 0.813%, -0.0333% and 1.2%, respectively.
Consider `CC(C)(C#Cc1ccc(NC(=O)COc2ccccc2C(=O)c2ccccc2)c(Cl)c1)C(=O)O`, for which the inhibition is 7.11% in [1]; 16.2% in experiment [2]; 15.6% in experiment [3]; -9.68% in experiment [4]; 115% in experiment [5] (Hit No); 61.6% in [6] (Hit No). Also, the inhibition stood at 49.5% in experiment [7], 12.2% in experiment [8] and 83.7% in [9] (Hit No).

The values are drawn from ChEMBL document CHEMBL5665443, “Enzyme Inhibitor Single Concentration assay results for EUbOPEN Chemogenomics Library” (2024).
